Test results published in ChEMBL document CHEMBL1201862, “PubChem BioAssay data set” (2004).
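Cells were grown in 96-well plates and exposed to each compound for 48 hours at five concentrations; endpoints were interpolated linearly between bracketing concentrations, or set to the highest concentration if not reached. GI50 = concentration required for 50% inhibition of growth.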 Active and inactive are the calls of the source. Rule as the data show it: active = GI50 up to about 1.1 µM and inactive = higher.

What was measured:
Test in all cases: NCI-60 cell line screen, 48 h
ACHN = tested on: ACHN
KM12 = tested on: KM12
UO-31 = tested on: UO-31
SW-620 = tested on: SW-620
NCI-H226 = tested on: NCI-H226
UACC-257 = tested on: UACC-257
Malme-3M = tested on: Malme-3M
SF-539 = tested on: SF-539
HCT-116 = tested on: HCT-116
A498 = tested on: A498
CAKI-1 = tested on: CAKI-1
SK-MEL-28 = tested on: SK-MEL-28
BT-549 = tested on: BT-549
CCRF-CEM = tested on: CCRF-CEM
HCT-15 = tested on: HCT-15
MOLT-4 = tested on: MOLT-4
NCI/ADR-RES = tested on: NCI/ADR-RES
LOX IMVI = tested on: LOX IMVI
SF-268 = tested on: SF-268
SNB-19 = tested on: SNB-19
UACC-62 = tested on: UACC-62
HOP-92 = tested on: HOP-92
RXF 393 = tested on: RXF 393
EKVX = tested on: EKVX
DU-145 = tested on: DU-145
SNB-75 = tested on: SNB-75
OVCAR-3 = tested on: OVCAR-3
MCF7 = tested on: MCF7
U-251 = tested on: U-251
PC-3 = tested on: PC-3
MDA-MB-435 = tested on: MDA-MB-435
OVCAR-5 = tested on: OVCAR-5
SK-OV-3 = tested on: SK-OV-3
IGROV-1 = tested on: IGROV-1
Hs-578T = tested on: Hs-578T
SF-295 = tested on: SF-295
K562 = tested on: K562
A549 = tested on: A549
M14 = tested on: M14
HCC 2998 = tested on: HCC 2998
NCI-H23 = tested on: NCI-H23
TK-10 = tested on: TK-10
MDA-MB-231 = tested on: MDA-MB-231
HL-60 = tested on: HL-60
786-0 = tested on: 786-0
HT-29 = tested on: HT-29
MDA-N = tested on: MDA-N
NCI-H522 = tested on: NCI-H522
SK-MEL-5 = tested on: SK-MEL-5
OVCAR-8 = tested on: OVCAR-8
OVCAR-4 = tested on: OVCAR-4
SK-MEL-2 = tested on: SK-MEL-2
HOP-62 = tested on: HOP-62
SN12C = tested on: SN12C
COLO 205 = tested on: COLO 205
RPMI-8226 = tested on: RPMI-8226
SR = tested on: SR
T47D = tested on: T47D
NCI-H460 = tested on: NCI-H460

Structure (SMILES): COc1ccc(NC(=S)c2ccc([N+](=O)[O-])o2)cc1
- GI50 (ACHN): 2010 nM (inactive)
- GI50 (KM12): 1600 nM (inactive)
- GI50 (UO-31): 2030 nM (inactive)
- GI50 (SW-620): 918 nM (active)
- GI50 (NCI-H226): 820 nM (active)
- GI50 (UACC-257): 2700 nM (inactive)
- GI50 (Malme-3M): 2370 nM (inactive)
- GI50 (SF-539): 178 nM (active)
- GI50 (HCT-116): 1520 nM (inactive)
- GI50 (A498): 15600 nM (inactive)
- GI50 (CAKI-1): 3440 nM (inactive)
- GI50 (SK-MEL-28): 3220 nM (inactive)
- GI50 (BT-549): 1850 nM (inactive)
- GI50 (CCRF-CEM): 2140 nM (inactive)
- GI50 (HCT-15): 895 nM
- GI50 (MOLT-4): 3220 nM (inactive)
- GI50 (NCI/ADR-RES): 678 nM (active)
- GI50 (LOX IMVI): 1120 nM (inactive)
- GI50 (SF-268): 2040 nM (inactive)
- GI50 (SNB-19): 2720 nM (inactive)
- GI50 (UACC-62): 1770 nM (inactive)
- GI50 (HOP-92): 7800 nM (inactive)
- GI50 (RXF 393): 1990 nM (inactive)
- GI50 (EKVX): 2920 nM (inactive)
- GI50 (DU-145): 3170 nM (inactive)
- GI50 (SNB-75): 3190 nM (inactive)
- GI50 (OVCAR-3): 1190 nM (inactive)
- GI50 (MCF7): 1800 nM (inactive)
- GI50 (U-251): 885 nM (active)
- GI50 (PC-3): 1320 nM (inactive)
- GI50 (MDA-MB-435): 2060 nM (inactive)
- GI50 (OVCAR-5): 3020 nM (inactive)
- GI50 (SK-OV-3): 12300 nM (inactive)
- GI50 (IGROV-1): 1820 nM (inactive)
- GI50 (Hs-578T): 2330 nM (inactive)
- GI50 (SF-295): 3600 nM (inactive)
- GI50 (K562): 2070 nM (inactive)
- GI50 (A549): 3180 nM (inactive)
- GI50 (M14): 2880 nM (inactive)
- GI50 (HCC 2998): 1620 nM (inactive)
- GI50 (NCI-H23): 1600 nM (inactive)
- GI50 (TK-10): 3070 nM (inactive)
- GI50 (MDA-MB-231): 2480 nM (inactive)
- GI50 (HL-60): 1990 nM (inactive)
- GI50 (786-0): 1970 nM (inactive)
- GI50 (HT-29): 1260 nM (inactive)
- GI50 (MDA-N): 2290 nM (inactive)
- GI50 (NCI-H522): 1290 nM (inactive)
- GI50 (SK-MEL-5): 650 nM (active)
- GI50 (OVCAR-8): 1280 nM (inactive)
- GI50 (OVCAR-4): 1550 nM (inactive)
- GI50 (SK-MEL-2): 1690 nM (inactive)
- GI50 (HOP-62): 2820 nM (inactive)
- GI50 (SN12C): 2130 nM (inactive)
- GI50 (COLO 205): 386 nM (active)
- GI50 (RPMI-8226): 1190 nM (inactive)
- GI50 (SR): 927 nM (active)
- GI50 (T47D): 3010 nM (inactive)
- GI50 (NCI-H460): 2180 nM (inactive)
